# Tests used:
# Assay in all cases: relative viability (nuclei count vs DMSO), 5 days (fraction); higher = more cells survive
# [1] = compound: C=CCc1cccc(/C=N/NC(=O)CN2CCN(Cc3ccccc3)CC2)c1O [PAC-1] + C[C@]1(O)C[C@@H](c2nc(-c3ccc4ccc(-c5ccccc5)nc4c3)c3c(N)nccn32)C1 [Linsitinib] (partner 1 µM)
# Method in brief: (§1)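 Lung cancer cell lines were pin-tool dosed in 1536-well plates on the day after seeding, with either a lone drug or a fixed anchor-drug dose plus five library-drug doses (not always all listed) in √10 steps. Nuclei were counted on 4× images after 5 days. Relative viability is the ratio of treated-well to vehicle-well nuclei counts, with each value a median of duplicate plates.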
# [2] = compound: C=CC(=O)N1CCC[C@@H](n2nc(-c3ccc(Oc4ccccc4)cc3)c3c(N)ncnc32)C1 [Ibrutinib] + COc1cc2c(Oc3ccc(NC(=O)C4(C(=O)Nc5ccc(F)cc5)CC4)cc3F)ccnc2cc1OCCCN1CCOCC1 [Foretinib] (partner 0.25 µM)
# Method in brief: as §1
# [3] = compound: C=CC(=O)N1CCC[C@@H](n2nc(-c3ccc(Oc4ccccc4)cc3)c3c(N)ncnc32)C1 [Ibrutinib] + COc1cccc2cc(-c3nc([C@H]4CC[C@H](C(=O)O)CC4)n4ncnc(N)c34)[nH]c12 [OSI-027] (partner 0.5 µM)
# Method in brief: as §1
# [4] = compound: C=CC(=O)N1CCC[C@@H](n2nc(-c3ccc(Oc4ccccc4)cc3)c3c(N)ncnc32)C1 [Ibrutinib] + CC(=O)Nc1cccc(-n2c(=O)n(C3CC3)c(=O)c3c(Nc4ccc(I)cc4F)n(C)c(=O)c(C)c32)c1 [Trametinib] (partner 0.02 µM)
# Method in brief: as §1
Cell Line,relative viability ([1]; first compound 0.02 µM),relative viability ([1]; first compound 0.06325 µM),relative viability ([1]; first compound 0.2 µM),relative viability ([1]; first compound 2 µM),relative viability ([2]; first compound 0.005 µM),relative viability ([2]; first compound 0.01581 µM),relative viability ([2]; first compound 0.05 µM),relative viability ([2]; first compound 0.1581 µM),relative viability ([2]; first compound 0.5 µM),relative viability ([3]; first compound 0.005 µM),relative viability ([3]; first compound 0.01581 µM),relative viability ([3]; first compound 0.05 µM),relative viability ([3]; first compound 0.1581 µM),relative viability ([3]; first compound 0.5 µM),relative viability ([4]; first compound 0.005 µM),relative viability ([4]; first compound 0.01581 µM),relative viability ([4]; first compound 0.05 µM),relative viability ([4]; first compound 0.1581 µM),relative viability ([4]; first compound 0.5 µM)
NCI-H1666,0.986,0.789,0.983,0.891,0.981,0.919,0.919,0.988,0.74,0.89,0.747,0.737,0.847,0.621,0.809,0.849,0.832,0.938,0.744
LK-2,0.49,0.807,0.537,0.621,,,1.32,1.27,0.996,0.151,0.203,0.203,0.174,0.212,0.931,0.7,0.816,0.702,0.668
NCI-H2009,1.16,1.21,1.17,1.15,1.31,1.21,1.14,1.19,1.26,0.522,0.631,0.585,0.729,0.804,0.208,0.252,0.253,0.306,0.234
COR-L 105,0.962,0.852,0.868,1.13,1,0.933,0.969,1.04,0.602,0.393,0.467,0.389,0.609,0.31,0.381,0.384,0.407,0.419,0.339
LXF-289,0.972,0.992,0.946,0.909,0.946,0.958,0.995,0.917,0.956,0.762,0.722,0.771,0.702,0.695,0.703,0.649,0.689,0.694,0.722
HARA,0.873,0.958,0.851,1.09,0.917,0.717,0.705,0.933,0.403,0.303,0.437,0.297,0.38,0.247,0.719,0.633,0.638,0.78,0.262
NCI-H1975,0.917,0.908,0.921,0.894,0.973,0.891,0.819,0.96,0.544,0.681,0.624,0.498,0.692,0.357,0.274,0.303,0.287,0.302,0.213
UMC-11,0.997,1.03,0.996,1.04,1.04,1.03,1.04,0.993,1.02,0.306,0.441,0.495,0.541,0.5,0.445,0.698,0.772,0.667,0.516
NCI-H2023,0.642,0.615,0.512,0.876,0.747,0.721,0.562,0.975,0.459,0.28,0.315,0.349,0.504,0.375,0.448,0.455,0.491,0.485,0.462
NCI-H23,0.534,0.574,0.564,0.505,0.988,0.884,0.939,0.914,0.641,0.331,0.562,0.681,0.57,0.607,0.313,0.38,0.362,0.366,0.361
CAL-12T,0.925,0.823,0.669,0.808,1.11,0.958,0.981,1.14,1.19,0.369,0.579,0.601,0.569,0.562,0.236,0.297,0.3,0.382,0.298
LCLC-97TM1,,0.196,0.196,0.165,0.945,0.881,1,1,0.843,0.586,0.425,0.558,0.487,0.483,0.192,0.172,0.202,0.192,0.155
NCI-H661,0.432,0.561,0.52,0.532,1.06,0.839,0.842,0.984,0.616,0.702,0.674,0.476,0.698,0.423,0.509,0.478,0.436,0.532,0.433
NCI-H1944,1.17,1.05,1.12,1.06,0.891,0.734,0.72,0.879,0.605,0.331,0.33,0.329,0.339,0.331,0.423,0.369,0.395,0.363,0.374
NCI-H1915,1.09,1.09,1.02,1.07,1.12,1.07,1.11,1.15,1.09,0.557,0.619,0.606,0.482,0.682,0.324,0.295,0.28,0.292,0.283
BEN,0.934,0.91,0.918,0.873,,0.724,0.418,0.444,0.672,,0.3,0.288,,0.298,0.897,,1.06,0.974,0.794
H3255,1.05,0.952,0.862,0.913,0.66,0.986,0.711,0.993,0.53,0.459,0.547,0.623,0.654,0.406,0.461,0.531,,0.624,0.378

Cell Line,relative viability ([1]; first compound 0.02 µM),relative viability ([1]; first compound 0.06325 µM),relative viability ([1]; first compound 0.2 µM),relative viability ([1]; first compound 2 µM),relative viability ([2]; first compound 0.005 µM),relative viability ([2]; first compound 0.01581 µM),relative viability ([2]; first compound 0.05 µM),relative viability ([2]; first compound 0.1581 µM),relative viability ([2]; first compound 0.5 µM),relative viability ([3]; first compound 0.005 µM),relative viability ([3]; first compound 0.01581 µM),relative viability ([3]; first compound 0.05 µM),relative viability ([3]; first compound 0.1581 µM),relative viability ([3]; first compound 0.5 µM),relative viability ([4]; first compound 0.005 µM),relative viability ([4]; first compound 0.01581 µM),relative viability ([4]; first compound 0.05 µM),relative viability ([4]; first compound 0.1581 µM),relative viability ([4]; first compound 0.5 µM)
NCI-H1395,1.02,1.15,0.842,0.958,0.913,0.922,1.02,0.982,0.907,0.602,0.617,0.612,0.5,0.781,0.912,1.13,1.16,1.04,1.01
NCI-H1437,0.986,1.02,0.911,0.71,1.33,1.19,1.26,1.28,1.27,0.718,0.846,0.941,0.913,0.878,0.53,0.51,0.555,0.491,0.624
NCI-H1755,1.01,1,0.94,0.982,0.929,0.925,0.951,1.02,0.855,0.636,0.552,0.79,0.81,0.777,0.761,0.796,0.796,0.793,0.746
SK-LU-1,1.17,1.06,1.04,0.716,0.857,0.804,0.814,0.926,0.719,0.262,0.324,0.301,0.397,0.381,0.393,0.501,0.472,0.536,0.454
HOP-62,1.01,0.927,0.977,0.939,1.19,1.11,1.17,1.21,1.3,0.689,0.733,0.832,0.982,0.924,0.367,0.331,0.374,0.424,0.385
NCI-H2228,0.575,0.787,0.603,0.694,0.845,,0.915,0.892,0.609,0.511,,0.478,0.481,0.509,0.379,0.488,0.412,0.55,0.298
SW 1573,0.826,0.76,0.759,0.914,0.816,0.733,1.01,0.844,0.879,0.436,0.517,0.653,0.704,0.651,,0.462,0.618,0.547,0.661
PC-14,0.967,1.03,0.91,0.925,1.1,0.907,,1.02,0.985,0.71,0.689,0.641,0.907,0.554,0.735,0.647,0.643,0.818,0.254
EMC-BAC-2,0.8,0.815,0.825,0.82,0.88,0.894,,0.969,0.797,0.33,0.352,0.403,0.426,0.405,0.836,0.895,,,1.03
NCI-H520,0.944,0.92,1,0.861,0.672,,0.734,0.945,0.531,0.221,,0.212,0.258,0.241,0.486,0.651,0.653,0.794,0.621
A-427,1.14,1.14,1.15,1.08,1.01,0.944,1.04,,1.02,0.36,0.431,0.512,0.369,0.499,0.654,0.777,0.782,,0.694
LC-2-ad,0.849,0.825,0.782,0.78,0.958,0.747,0.856,0.886,0.836,0.741,0.746,0.797,0.792,0.752,0.914,0.907,,0.929,0.863
NCI-H727,0.281,0.283,0.272,0.317,0.911,0.785,0.914,,0.695,0.506,0.591,0.674,,0.577,0.463,0.4,0.398,0.37,0.388
COR-L23,0.945,0.937,0.861,1.03,1.08,0.886,1.04,0.926,1,0.644,0.731,0.762,0.875,0.882,0.393,0.574,0.621,0.647,0.756
NCI-H3122,1.03,1.01,0.992,1.03,1.02,0.984,1.04,0.938,1.04,0.895,0.921,0.955,0.671,1.32,0.23,0.244,0.251,0.223,0.221
NCI-H322M,0.907,0.889,0.817,0.928,0.872,0.864,0.899,0.989,0.642,0.482,0.564,0.513,0.507,0.488,0.466,0.457,0.532,0.519,0.508
NCI-H441,0.519,0.571,0.496,0.564,0.898,1.11,1.1,1.08,0.895,0.579,0.664,0.597,0.677,0.707,0.423,0.441,0.524,0.344,0.342
